Laboratory results from patent US20090075921A1, “Bone/joint disease sensitivity gene and use thereof” (Riken, priority 2004, published 2009).

Columns and labels:
[1] = test system: NHAC; test: Effect of cycloheximide on asporin gene expression induction by TGF-β1 in NHAC; type: cell-based, human
Procedure: (§1) A time course of the expression of the asporin gene by TGF-β1 in NHAC was examined as described below. Cells were inoculated to a 12-well plate at 1×10^5 cells/well, and cultured in a DMEM/F12 containing 10% FBS until they became confluent. The medium was exchanged with a DMEM/F12 containing 0.2% FBS, and the cells were cultured for 24 hours, after which TGF-β1 (10 ng/ml) was added, total RNA was extracted over time, and the expression levels of the asporin and GAPDH genes were examined. As a result, the expression level of the asporin gene maximized when the cells were cultured in the presence of TGF-β1 (10 ng/ml) for 12 hours, and thereafter the expression level decreased over time (FIG. 46).
In the experimental system for asporin gene-expression induction by TGF-β1 used in the method described in Example 54, the effect of CHX (Sigma) (10 μM), a protein synthesis inhibitor, on the induction of the expression of the asporin gene (12 hours), when added 30 minutes before, simultaneously with, or 2 hours or 6 hours after addition of TGF-β1 (10 ng/ml), was examined. As a result, when CHX was added 30 minutes before, and simultaneously with, the addition of TGF-β1, asporin induction by TGF-β1 was inhibited (FIG. 48).

[2] = test system: RCJ3.1C5.18 cells; test: Ionomycin stimulation experiments in chondrocyte precursor cell line RCJ3.1C5.18; type: cell-based, rat; details: ionomycin 2 μM, W-7 0 to 10 μM, 24 hours
Procedure: RCJ3.1C5.18 cells are cells having characters as chondrocyte precursor cells, and showing increased expression of the type II collagen gene and the aggrecan gene in response to stimulation with ionomycin, which is a reagent that raises intracellular calcium concentrations. The present inventors analyzed the involvement of CaM in this reaction using W-7, which is a CaM inhibitor. For ordinary culture, DMEM (Sigma) comprising 10% FBS and antibiotics (100 U/ml penicillin G and 100 μg/ml streptomycin) was used. The stimulation experiments were performed by the procedure shown below. Cells were inoculated to a 12-multiwell plate at 1×10^5 cells/well. […] Quantitative real-time PCR was performed using ABI PRISM 7700 (Applied Biosystems). PCR reactions were performed using a system of a final volume of 20 μl [reverse transcription reaction mixture 1 μl, QuantiTect SYBR Green PCR (QIAGEN) 10 μl, 10 μM forward primer 0.6 μl, 10 μM reverse primer 0.6 μl, […]]. […] The copy number of the target gene in each sample was calculated from a calibration curve prepared using serial dilutions of target gene DNA of a known copy number. The expression level of each gene was corrected by total RNA content calculated with the expression level of GADPH as the index.

[3] = test system: ATDC5; test: Chondrocyte differentiation experiments in ATDC5 with CaM inhibitor; type: cell-based, mouse; details: W-7 20 μM in insulin-containing differentiation medium
Excerpt: The embryonic tumor-derived cloned cell line ATDC5 is an in vitro chondrocyte differentiation model that enables the reproduction of all differentiation stages of chondrocytes, from initial differentiation to terminal differentiation, in the presence of insulin. To analyze the role of calmodulin (CaM) in chondrocyte differentiation, the present inventors cultured ATDC5 in the presence of W-7, which is a CaM inhibitor, and quantified the expression levels of chondrocyte differentiation markers, i.e., the type II collagen gene (Col2a1), the aggrecan gene (Agc1), and the type X collagen gene (Col10a1). […] Medium exchange was performed every two days; cultivation was continued for up to 22 days, counted from the day of exchange to the differentiation medium. […] Quantitative real-time PCR was performed using ABI PRISM 7700 (Applied Biosystems). PCR reactions were performed using a system of a final volume of 20 μl [reverse transcription reaction mixture 1 μl, QuantiTect SYBR Green PCR (QIAGEN) 10 μl, 10 μM forward primer 0.6 μl, 10 μM reverse primer 0.6 μl, […]]. […] The copy number of the target gene in each sample was calculated from a calibration curve prepared using serial dilutions of target gene DNA of a known copy number. The expression level of each gene was corrected by total RNA content calculated with the expression level of Gapdh as the index.

[4] = test system: ATDC5; test: Induction with TGF-β1 of asporin gene expression in ATDC5; type: cell-based, mouse; details: TGF-β1 10 ng/ml, 24 hours
Procedure: (§2) In various cartilage lineage cell lines, the potential of TGF-β1 for inducing asporin gene expression was examined by the method described below. OUMS-27 was cultured in a DMEM containing 10% FBS, CS-OKB was cultured in an RPMI1640 containing 10% FBS, and normal human articular chondrocytes of knee joint (NHAC-kn, P7, monolayer, Clonetics) were cultured using Chondrocyte Growth Medium (CGM, Clonetics). ATDC5 was cultured using the medium 1-2 described in Example 13. For the induction experiments in the cartilage lineage cell lines, cells were cultured in the above-described media until they became confluent, after which the medium was exchanged with a medium containing 0.2% FBS, and the cells were cultured for 12 hours; TGF-β1 (10 ng/ml) was added, and the cells were further cultured for 24 hours. RNA extraction, cDNA synthesis, and real-time PCR were performed by the methods described in Example 12.

[5] = test system: NHAC; test: Time course of asporin gene expression by TGF-β1 in NHAC; type: cell-based, human; details: TGF-β1 10 ng/ml
Procedure: as §1

[6] = test system: NHAC-kn; test: Induction with TGF-β1 of asporin gene expression in NHAC-kn; type: cell-based, human; details: TGF-β1 10 ng/ml, 24 hours
Procedure: as §2

[7] = test system: OUMS-27; test: Induction with TGF-β1 of asporin gene expression in OUMS-27; type: cell-based, human; details: TGF-β1 10 ng/ml, 24 hours
Procedure: as §2

[8] = test system: NHAC; test: Articular chondrocyte differentiation maintenance in redifferentiated NHAC; type: cell-based, human; details: 7 days, TGF-β1 40 ng/ml, asporin 20 μg/ml where added
Procedure: NHAC was redifferentiated by alginate beads culture for 2 weeks using a chondrocyte differentiation medium (CDM) manufactured by Cambrex Company according to the protocol attached. These redifferentiated cells were inoculated to a Lab-Tek II chamber slide (Nunc), a DMEM/F12 containing 5% FBS, ITS (Sigma), and TGF-β1 (40 ng/ml) was added, and the cells were allowed to maintain the degree of differentiation thereof; the effects of addition of asporin (20 μg/ml) on the cell morphology and extracellular proteoglycan accumulation were examined.

[9] = test system: NHAC; test: MTT assay of TGF-β1-stimulated cell growth in NHAC; type: cell-based, human; details: TGF-β1 40 ng/ml alone, 5 days
Procedure: NHAC was inculated to a 12-well plate at 1×10^5 cells/well, and cultured in a DMEM/F12 containing 10% FBS supplemented with TGF-β1 (40 ng/ml) and asporin (5 or 20 μg/ml) for 5 days, after which the degree of cell growth was examined by the MTT assay method described below. Specifically, 3-(4,5-dimethyl-2-thiazolyl)-2,5-diphenyl-2H-tetrazolium bromide (MTT, Dojindo Laboratory) was dissolved in DMEM/F12 to obtain a concentration of 1 mg/ml, the solution was added to the cells after the medium was removed by suction, and the cells were cultured at 37° C. for 1 hour. Thereafter the medium containing MTT was discarded, and the cells were subjected to extraction treatment using a Lysis reagent (86% isopropanol, 40 mM hydrochloric acid, 1% SDS). This cell lysate was transferred to a 96-well plate, and the absorbance at 550 nm was measured using a microplate reader.

[10] = target: TGF-β1 (Homo sapiens, UniProt P01137); test: Microplate binding assay, inhibition of biotinylated decholine binding to TGF-β1 solid phase; details: TGF-β1-coated microplate
TGF-β1, sequence (P01137 279-390 limits assumed, species assumed): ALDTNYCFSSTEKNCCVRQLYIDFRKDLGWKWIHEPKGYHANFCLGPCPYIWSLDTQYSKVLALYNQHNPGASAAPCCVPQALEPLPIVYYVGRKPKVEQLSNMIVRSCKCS
Procedure: A binding assay of mouse asporin and TGF-β using the microplate assay method was performed with the degree of inhibition of binding of biotinylated decholine and TGF-β as the index, as described below. To a Maxisorp 96-well microplate of Nunc, a 1 μg/ml TGF-β1 solution prepared with 0.05 M sodium carbonate buffer (pH 9.6) was dispensed at 100 μl/well, and the microplate was coated with the solution at 4° C. overnight. The TGF-β-coated wells were blocked in a 200 μl/well of binding buffer (50 mM Tris (pH 7.4), 150 mM NaCl, 2% BSA, 0.05% Tween 20) at 37° C. for 3 hours. The wells were once washed with a 400 μl/well of binding buffer, after which biotinylated decholine and non-labeled protein, prepared with the binding buffer, were added to obtain a total quantity of 100 μl per well, and the microplate was incubated at 37° C. for 6 hours. The wells were washed with a 400 μl/well of binding buffer 3 times, after which streptavidin-HRP (R&D System), diluted 200 fold with the binding buffer, was added at 100 μl/well, and the microplate was incubated at room temperature for 20 minutes. […] The reaction was stopped by the direct addition of 1 M phosphoric acid at 100 μl/well, and absorbance at 415 nm (control: 750 nm) was measured using Ultramark Microplate Imaging System (BIO-RAD). […]

Molecule: C[C@@H]1C[C@@H]([C@H](O)CC2CC(=O)NC(=O)C2)C(=O)[C@@H](C)C1 [CHX, cycloheximide]
- asporin induction by TGF-β1 ([1]; CHX 10 μM added 30 minutes before or simultaneously with TGF-β1 10 ng/ml): inhibited
- asporin induction by TGF-β1 ([1]; CHX 10 μM added at 2 hours or thereafter following TGF-β1): induction of asporin gene expression by TGF-β1 was observed

Molecule: NCCCCCCNS(=O)(=O)c1cccc2c(Cl)cccc12 [W-7]
- ionomycin-induced expression of the type II collagen gene and the aggrecan gene [2]: suppressed dose-dependently
- increases in the expression levels of Col2a1 and Agc1 ([3]; real-time PCR): suppressed to about half
- expression level of Col10a1 ([3]; up to Day 22): further rose

Molecule: TGF-β1: TGF-β isoform, regulatory factor of cartilage differentiation used as stimulus
- expression of asporin with TGF-β1 stimulation [4]: tended to be slightly suppressed
- culture time at which the expression level of the asporin gene maximized [5]: 12 h
- expression level of asporin after 3 days in the presence of TGF-β1 ([5]; vs control): smaller than that without induction
- expression of the asporin gene with TGF-β1 stimulation [6]: significant increases
- expression of the asporin gene with TGF-β1 stimulation [7]: significant increases
- Safranine-O stainability (extracellular proteoglycan) [8]: positive
- cell morphology [8]: egg-like morphology
- cell growth of NHAC (MTT, absorbance at 550 nm) [9]: increased

B1: Fr.18-21: partially purified product of Escherichia coli recombinant S-tagged mouse asporin (protein, UniProt Q99MQ4 33-373, looked up)
Asporin: DMEDTDDDDNDDDDNSLFPTKEPVNPFFPFDLFPTCPFGCQCYSRVVHCSDLGLTSVPNNIPFDTRMVDLQNNKIKEIKENDFKGLTSLYALILNNNKLTKIHPKTFLTTKKLRRLYLSHNQLSEIPLNLPKSLAELRIHDNKVKKIQKDTFKGMNALHVLEMSANPLENNGIEPGAFEGVTVFHIRIAEAKLTSIPKGLPPTLLELHLDFNKISTVELEDLKRYRELQRLGLGNNRITDIENGTFANIPRVREIHLEHNKLKKIPSGLQELKYLQIIFLHYNSIAKVGVNDFCPTVPKMKKSLYSAISLFNNPMKYWEIQPATFRCVLGRMSVQLGNVGK
modifications: S-tag; partially purified fraction
notes: partially purified product of Escherichia coli recombinant S-tagged mouse asporin
- inhibition of binding of biotinylated decholine to TGF-β1 [10]: observed with dependence on protein content

B2: S-tagged mouse asporin: S-tagged mature mouse asporin expressed in E. coli from pET29b-MASP, contained in Fr.18-21 (protein)
chain: B1 Asporin
modifications: left off: small tags and cut ends
- binding of S-tagged mouse asporin to the TGF-β1 solid phase [10]: binding of S-tagged mouse asporin was observed
